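Exposure lasted 48 hours, with cells grown in 96-well plates and compounds tested at five concentrations. At the GI50, growth is halved.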 The source made the active and inactive calls. Cut-off read from the data, not from the text of the source: active = GI50 up to about 1.1 µM and inactive = higher.
What was measured:
Experiment in all cases: DTP human tumour cell line panel, 48 h
EKVX = system: EKVX
U-251 = system: U-251
SR = system: SR
NCI-H23 = system: NCI-H23
KM12 = system: KM12
HT-29 = system: HT-29
SF-295 = system: SF-295
M14 = system: M14
MCF7 = system: MCF7
HOP-92 = system: HOP-92
CAKI-1 = system: CAKI-1
K562 = system: K562
UO-31 = system: UO-31
UACC-257 = system: UACC-257
NCI-H522 = system: NCI-H522
786-0 = system: 786-0
NCI/ADR-RES = system: NCI/ADR-RES
SNB-19 = system: SNB-19
RXF 393 = system: RXF 393
MOLT-4 = system: MOLT-4
A549 = system: A549
SF-268 = system: SF-268
A498 = system: A498
SK-OV-3 = system: SK-OV-3
MDA-MB-231 = system: MDA-MB-231
UACC-62 = system: UACC-62
RPMI-8226 = system: RPMI-8226
LOX IMVI = system: LOX IMVI
IGROV-1 = system: IGROV-1
Malme-3M = system: Malme-3M
ACHN = system: ACHN
BT-549 = system: BT-549
MDA-N = system: MDA-N
SK-MEL-2 = system: SK-MEL-2
OVCAR-8 = system: OVCAR-8
SW-620 = system: SW-620
COLO 205 = system: COLO 205
OVCAR-5 = system: OVCAR-5
Hs-578T = system: Hs-578T
PC-3 = system: PC-3
OVCAR-4 = system: OVCAR-4
HOP-62 = system: HOP-62
MDA-MB-435 = system: MDA-MB-435
DU-145 = system: DU-145
SNB-75 = system: SNB-75
HCT-116 = system: HCT-116
HCT-15 = system: HCT-15
HCC 2998 = system: HCC 2998
SK-MEL-5 = system: SK-MEL-5
NCI-H460 = system: NCI-H460
CCRF-CEM = system: CCRF-CEM
SK-MEL-28 = system: SK-MEL-28
OVCAR-3 = system: OVCAR-3
TK-10 = system: TK-10
HL-60 = system: HL-60
NCI-H226 = system: NCI-H226
SN12C = system: SN12C
SF-539 = system: SF-539

Measured: GI50

C/C=C\C(CC(=O)O)CC(=O)NCCC1CN(S(=O)(=O)C(F)(F)F)c2ccccc21 (centres undefined)
inactive: EKVX > 100 µM | U-251 > 100 µM | SR > 100 µM | NCI-H23 > 100 µM | KM12 > 100 µM | HT-29 > 100 µM | SF-295 > 100 µM | M14 > 100 µM | MCF7 > 100 µM | HOP-92 > 100 µM | CAKI-1 > 100 µM | K562 > 100 µM | UO-31 > 100 µM | UACC-257 > 100 µM | NCI-H522 > 100 µM | 786-0 > 100 µM | NCI/ADR-RES > 100 µM | SNB-19 > 100 µM | RXF 393 > 100 µM | MOLT-4 > 100 µM | A549 > 100 µM | SF-268 > 100 µM | A498 > 100 µM | SK-OV-3 > 100 µM | MDA-MB-231 > 100 µM | UACC-62 > 100 µM | RPMI-8226 > 100 µM | LOX IMVI > 100 µM | IGROV-1 > 100 µM | Malme-3M > 100 µM | ACHN > 100 µM | BT-549 > 100 µM | MDA-N > 100 µM | SK-MEL-2 > 100 µM | OVCAR-8 > 100 µM | SW-620 > 100 µM | COLO 205 > 100 µM | OVCAR-5 > 100 µM | Hs-578T > 100 µM | PC-3 > 100 µM | OVCAR-4 > 100 µM | HOP-62 > 100 µM | MDA-MB-435 > 100 µM | DU-145 > 100 µM | SNB-75 > 100 µM | HCT-116 > 100 µM | HCC 2998 > 100 µM | SK-MEL-5 > 100 µM | NCI-H460 > 100 µM | CCRF-CEM > 100 µM | SK-MEL-28 > 100 µM | OVCAR-3 > 100 µM
> 100 µM: HCT-15

N#Cc1c(N)nc2c(/N=N\c3ccccc3)c(N)nn2c1Nc1ccccc1
active: Hs-578T 1.06 µM
23.6 µM: HCT-15
inactive: EKVX 5.37 µM | U-251 10.2 µM | SR 2.39 µM | NCI-H23 4.55 µM | KM12 4.75 µM | HT-29 12.4 µM | SF-295 16.8 µM | M14 12.1 µM | MCF7 1.51 µM | HOP-92 14.6 µM | TK-10 22.3 µM | CAKI-1 8.93 µM | K562 3.4 µM | UO-31 > 10 µM | UACC-257 18.7 µM | NCI-H522 17.8 µM | 786-0 18.6 µM | NCI/ADR-RES 20.4 µM | SNB-19 18.5 µM | RXF 393 13.1 µM | MOLT-4 3.24 µM | A549 21.1 µM | SF-268 26.7 µM | A498 21.7 µM | MDA-MB-231 16 µM | RPMI-8226 3.56 µM | HL-60 2.52 µM | LOX IMVI 3.4 µM | IGROV-1 10.9 µM | Malme-3M 21.6 µM | ACHN 20.4 µM | BT-549 23.9 µM | NCI-H226 25.7 µM | MDA-N 15.6 µM | SK-MEL-2 7.91 µM | OVCAR-8 3.72 µM | SW-620 10.8 µM | COLO 205 9.93 µM | OVCAR-5 26.7 µM | SN12C 7.69 µM | PC-3 5.69 µM | SF-539 21.6 µM | OVCAR-4 14.9 µM | HOP-62 20.3 µM | MDA-MB-435 16.4 µM | DU-145 18.2 µM | SNB-75 34.3 µM | HCT-116 9.38 µM | HCC 2998 4.41 µM | SK-MEL-5 14.9 µM | NCI-H460 10.1 µM | CCRF-CEM 4.37 µM | SK-MEL-28 5.51 µM | OVCAR-3 13.9 µM

Reference: ChEMBL document CHEMBL1201862, “PubChem BioAssay data set” (2004)
